Where “and” joins values, the source holds several entries; their conditions need not be identical. Equal entries are not always repeated.

Usually stoichiometry N stands for the number of molecules, sites or subunits per partner or assembly.

Assay [1] deals with T1, VvCHIL (Vitis vinifera, UniProt F6HC36). As to the kind of experiment: Differential scanning fluorimetry (DSF) thermal shift, VvCHIL. It counts as binding. The conditions noted are these: for ΔTm: read-out: maximum thermal shift (ΔTmmax); for effect on protein thermostability (thermal shift): high ligand concentration. From the text:
(§1) Differential scanning fluorimetry (DSF) is a sensitive and label-free method for measuring the Tm of a protein, defined as the temperature at which 50% of a protein sample is unfolded ([21]). Positive Tm changes have been used to measure binding between a CHIL protein and chalcones ([15]). To elucidate a broader scope of CHIL–chalcone interactions, DSF was used to determine the thermal shifts that occur to VvCHIL and PpCHIL-A upon binding naturally occurring chalcones containing different substitution patterns (Fig. 1).
(§2) Assays were performed using SYPRO orange dye (1:625 dilution) and 6 μM CHIL protein against dilution series of (2R/2S)-naringenin (Sigma–Aldrich), NC, 2ʹ,4,4ʹ-trihydroxychalcone (Indofine), 2,2ʹ,4ʹ-trihydroxychalcone (Indofine), and quercetin (Thermo Scientific). Reactions were run in 20 μl reaction volumes and in a buffer containing 150 mM NaCl, 25 mM Tris (pH 8.0), 2 mM DTT, and 2% DMSO. Because of low solubility, 2% DMSO was used for all reactions to enhance ligand solubility. Experiments were performed on a QuantStudio 3 Real-Time PCR and analyzed using Protein ThermalShift software (Thermo Fisher Scientific). Replicates of two to four experiments were conducted for each condition, and GraphPad Prism 9 was used to fit maximum thermal shift (ΔTmmax) and apparent Kd values.
(In general: Differential scanning fluorimetry follows unfolding on heating by fluorescence.)

The target of assay [2] is T2, PpCHIL-A (Physcomitrium patens, UniProt A9T3E4). As to the kind of experiment: Differential scanning fluorimetry (DSF) thermal shift, PpCHIL-A. It counts as binding, Physcomitrella patens. The conditions noted are these: for ΔTm: read-out: maximum thermal shift (ΔTmmax); for difference of apparent Kd relative to NC: PpCHIL-A.
T2 sequence (A9T3E4 entry or part of it): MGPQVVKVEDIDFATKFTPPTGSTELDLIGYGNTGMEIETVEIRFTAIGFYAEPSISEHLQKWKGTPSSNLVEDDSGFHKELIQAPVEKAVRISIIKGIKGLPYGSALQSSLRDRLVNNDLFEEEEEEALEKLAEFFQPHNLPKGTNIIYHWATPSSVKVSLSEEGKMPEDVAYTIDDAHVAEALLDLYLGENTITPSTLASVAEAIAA
Description: as §1, §2

Assay [3] deals with PpCHIL–PpCHS binding. The experiment in a line: Protein pull-down assay, strep-PpCHS and untagged PpCHIL-A. Also noted: species or system P. patens. The conditions noted are these: 4.3 mM ligand. How it is done: (§3) Protein pull-down assays were conducted using 1 mg of purified strep-tagged AtCHS or PpCHS and 0.3 ml StrepTactin Sepharose resin. The untagged purified VvCHIL or PpCHIL-A proteins was used as […] (0.5 mg). Binding reactions were incubated at room temperature either without ligand and 2% DMSO, or with the reported concentration of ligand and 2% DMSO. The StrepTactin resin was washed 4× with 1 ml of buffer in order to remove unbound protein prior to elution. Each wash buffer contained the reported concentration of ligand, 2% DMSO, 150 mM NaCl, 50 mM Tris (pH 8.0), and 2 mM DTT. Strep-CHS was eluted from the StrepTactin resin with 0.1 ml elution buffer, which contains 1 mM desthiobiotin, 2% DMSO, 150 mM NaCl, 50 mM Tris (pH 8.0), and 2 mM DTT. The pull-down assays were resolved using 15% acrylamide SDS-PAGE and native PAGE gels and imaged and quantified using Image Lab (Bio-Rad). About 50 mM of DTT was used in the native PAGE loading buffer.

The test system of assay [4] is PpCHS–PpCHIL-A L188W. As to the kind of experiment: Protein pull-down assay, strep-PpCHS and PpCHIL-A L188W. The conditions noted are these: 4.3 mM ligand. It is filed as binding, P. patens. The procedure: as §3
The test system of assay [5] is VvCHIL–AtCHS binding. The experiment in a line: Protein pull-down assay, strep-AtCHS and untagged VvCHIL. Also on record: species or system Vitis vinifera / A. thaliana. The conditions noted are these: for effect on VvCHIL–AtCHS binding: increasing ligand concentrations, 2% DMSO. How it is done: as §3
The target in assay [6] is T3, PpCHIL-A L188W (Physcomitrium patens, UniProt A9T3E4, L188W). The experiment in a line: DSF thermal shift, PpCHIL-A L188W variant. It is filed as binding, Physcomitrella patens. The procedure:
as §2

The target of assay [7] is T4, VvCHIL W221L (Vitis vinifera, UniProt F6HC36, W221L). As to the kind of experiment: DSF thermal shift, VvCHIL W221L variant. It counts as binding. The procedure: as §2
T4 sequence (F6HC36 entry or part of it W221L): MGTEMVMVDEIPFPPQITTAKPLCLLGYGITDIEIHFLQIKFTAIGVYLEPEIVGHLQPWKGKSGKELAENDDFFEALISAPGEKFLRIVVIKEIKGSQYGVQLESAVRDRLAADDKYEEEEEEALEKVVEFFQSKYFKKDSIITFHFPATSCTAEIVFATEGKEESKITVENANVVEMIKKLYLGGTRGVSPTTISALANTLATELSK
Assay [8] concerns the target T5, VvCHIL Q141A (Vitis vinifera, UniProt F6HC36, Q141A). The experiment in a line: DSF thermal shift, VvCHIL Q141A variant. It is filed as binding. The procedure:
as §2

Assay [9] addresses HlCHIL1. Also on record: method as in PMID 29760092. The conditions noted are these: measured by DSF; ref [15]; cited from earlier work.
Assay [10] addresses T6, MsCHI-II (Medicago sativa, UniProt P28012).
T6 construct: His8 (thrombin-cleavable) (N, cleaved yes); made in house; host or cells: E. coli BL21 DE3-pRIL
T6 sequence (P28012 1-222): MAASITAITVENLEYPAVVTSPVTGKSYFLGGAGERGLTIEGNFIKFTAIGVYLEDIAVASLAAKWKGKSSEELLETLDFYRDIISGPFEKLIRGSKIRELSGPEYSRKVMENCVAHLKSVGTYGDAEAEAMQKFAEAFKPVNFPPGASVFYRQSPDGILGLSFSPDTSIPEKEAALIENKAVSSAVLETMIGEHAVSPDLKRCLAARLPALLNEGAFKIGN
The experiment in a line: Differential scanning fluorimetry (DSF) thermal shift, MsCHI-II. It counts as binding. The conditions noted are these: pH 8.0, 2% DMSO, read-out: apparent Kd.

Assay [11] addresses T1, VvCHIL. The experiment in a line: Quercetin fluorescence enhancement assay, VvCHIL. It counts as binding. The procedure: (§4) Fluorescence enhancement of quercetin (Thermo Scientific) was measured in the presence of VvCHIL and PpCHIL-A. The assays were performed in a buffer containing 25 mM Tris (pH 8.0), 150 mM NaCl, and 2% dimethyl sulfoxide (DMSO), used to solubilize quercetin. Protein concentrations were varied from 4.3 to 2250 μM relative to a constant concentration of quercetin (10 μM). After a binding equilibration period of 10 min at 25 °C, changes to the relative fluorescence intensity of quercetin (excitation 485 nm and emission 545 nm) were measured using a Vector X3 multimode plate reader (PerkinElmer). Background fluorescence from identical samples not containing quercetin was subtracted, and change-in-fluorescence data were fit using GraphPad Prism 9 (GraphPad Sofware, Inc) to a single-site binding equation in order to determine equilibrium dissociation constant (Kd) values.

Assay [12] deals with T5, VvCHIL Q141A. As to the kind of experiment: Quercetin fluorescence enhancement assay, VvCHIL Q141A. It is filed as binding. The procedure:
as §4

The target of assay [13] is T3, PpCHIL-A L188W. As to the kind of experiment: Quercetin fluorescence enhancement assay, PpCHIL-A L188W. It counts as binding, Physcomitrella patens. The procedure:
as §4

Assay [14] addresses T4, VvCHIL W221L. As to the kind of experiment: Quercetin fluorescence enhancement assay, VvCHIL W221L. It is filed as binding. How it is done: as §4
For assay [15], the system named is VvCHIL W221L. Described as above. The conditions noted are these: VvCHIL W221L, fluorescence. It counts as binding, Vitis vinifera. The procedure: as §4
The target in assay [16] is T2, PpCHIL-A. The experiment in a line: Quercetin fluorescence enhancement assay, PpCHIL-A. The conditions noted are these: fluorescence enhancement of 10 μM quercetin, protein titrated, 25 °C, pH 8.0. It counts as binding, Physcomitrella patens. The procedure: as §4
Assay [17] deals with Chalcone isomerase-like protein from Vitis vinifera (VvCHIL) (Vitis vinifera). As to the kind of experiment: SEC; HiPrep Sephacryl S-200 high-resolution column, 1 ml/min, 200 mM NaCl, 25 mM Tris pH 8.0, 2 mM DTT; His tags removed; masses against Bio-Rad standards. Background: In gel filtration, larger molecules generally elute earlier.
Setting [18] is: DSF, 6 μM protein, pH 8.0, 2% DMSO.
Where [19] appears, read: DSF, single-site fit, 6 μM protein, pH 8.0, 2% DMSO, read-out: apparent Kd.
Setting [20] is: fluorescence enhancement of quercetin.

T3 sequence (A9T3E4 entry or part of it L188W): as the sequence (A9T3E4 entry or part of it) above, with L188W counted along it
T1 sequence (F6HC36 entry or part of it): as the sequence (F6HC36 entry or part of it W221L) above, with L183W counted along it
T5 sequence (F6HC36 entry or part of it Q141A): as the sequence (F6HC36 entry or part of it W221L) above, with Q103A, L183W counted along it

On to `O=C(/C=C/c1ccccc1O)c1ccc(O)cc1O` [2,2ʹ,4ʹ-trihydroxychalcone], for which the ΔTm worked out at 3.3 ± 0.7 °C in assay [1] (setting [18]) and 2.7 ± 0.2 °C in [2] (setting [18]). The Kd in assay [1] (setting [19]) stood at 286 ± 23 µM; in [2] (setting [19]) it was 85 ± 23 µM. For the same compound, in [1] (VvCHIL, DSF), the “fold difference of apparent Kd relative to NC (NC smaller)” value is on record as ~11 fold. The “difference of apparent Kd relative to NC” value in assay [2] (DSF) is on record as “twofold greater”.
`O=C(/C=C/c1ccc(O)cc1)c1ccc(O)cc1O` [2ʹ,4,4ʹ-trihydroxychalcone]: the values for the Kd in [1] and in assay [2] were 127 ± 51 µM and 41 ± 10 µM, respectively. In assay [1] (VvCHIL, DSF), the “fold difference of apparent Kd relative to NC (NC smaller)” value was “approximately 5 fold”. In addition, the “difference of apparent Kd relative to NC” value in [2] (DSF) is listed as “does not bind with an appreciable difference”.
For `O=C(/C=C/c1ccc(O)cc1)c1c(O)cc(O)cc1O` [NC, 2ʹ,4,4ʹ,6ʹ-tetrahydroxychalcone], the “PpCHIL-A in the strep-PpCHS–bound fraction” value in assay [3] is given as “strongly enriched”. For the same compound, the ΔTm in assay [1] (setting [18]) stood at 3.5 ± 0.2 °C; in [2] (setting [18]), 1.7 ± 0.2 °C. Besides, the Kd in assay [1] (setting [19]) was 24 ± 5 µM; in assay [2] (setting [19]), 58 ± 16 µM; in assay [6] it was 18 ± 6 µM; in assay [7] it was 17 ± 4 µM; in [8], 16 ± 2 µM; in assay [9], 43 µM. Besides, the “pull-down of PpCHIL-A L188W by PpCHS” value in [4] was “enhanced”. Also, in assay [5], the “effect on VvCHIL–AtCHS binding” value was “enhances binding”. Besides, the “increase of apparent binding affinity over wildtype PpCHIL-A” value in assay [6] (PpCHIL-A L188W, DSF) is reported as “approximately threefold”. Also, in assay [9], the ΔTmmax was 6.4 °C.
With `O=C1C[C@@H](c2ccc(O)cc2)Oc2cc(O)cc(O)c21` [naringenin], the “PpCHIL-A in the strep-PpCHS–bound fraction” value in assay [3] was “observed in the bound fractions”. Further, the “effect on protein thermostability (thermal shift)” value in assay [1] (VvCHIL, DSF) is “reduced protein Tms at high naringenin concentrations”. In [4], the “pull-down of PpCHIL-A L188W by PpCHS” value was “similarly in the presence and absence of naringenin”. Moreover, the Kd in assay [2] was 762 ± 39 µM; in assay [10], 1020 µM and 1050 µM; in [6], 180 ± 81 µM. Further, in assay [5] (4.30 mM ligand), the “VvCHIL band in the strep-AtCHS–bound fraction” value is recorded as “below the threshold of detection”. Further, the “effect on VvCHIL–AtCHS binding” value in assay [5] is on record as “increasingly disrupted”. For the same compound, the “increase of apparent binding affinity over wildtype PpCHIL-A” value in [6] (PpCHIL-A L188W, DSF) is reported as “approximately fourfold”. The “reduction of thermal stabilization relative to wildtype PpCHIL-A” value in assay [6] (PpCHIL-A L188W, DSF) was “approximately 2 °C”. The “thermal destabilization by ligand” value in assay [7] (VvCHIL W221L, DSF) is “does not undergo thermal destabilization”; in [8] (VvCHIL Q141A, DSF), “does not undergo thermal destabilization”.
For the compound `O=c1c(O)c(-c2ccc(O)c(O)c2)oc2cc(O)cc(O)c12` [quercetin], the “fraction of VvCHIL bound” value in assay [11] (750 μM quercetin, based on the Kd value for VvCHIL) is recorded as 0.68. Moreover, the Kd in assay [11] (fluorescence enhancement of 10 μM quercetin, protein titrated, 25 °C, pH 8.0) came out at 347 ± 35 µM; in assay [12] (setting [20]), 403 ± 59 µM; in [13] (setting [20]), 582 ± 282 µM; in assay [14] it was 612 ± 167 µM; in [16], 240 ± 121 µM. The “change of binding relative to wildtype VvCHIL” value in assay [12] (fluorescence) was “not significantly altered”. Moreover, in assay [1] (VvCHIL, DSF), the “ligand concentration that induces a negative thermal shift” value is listed as “above 750 μM”. Besides, the “effect on protein thermostability (thermal shift)” value in assay [1] (VvCHIL, DSF) is “destabilizes”. In addition, the “reduction of binding affinity relative to wildtype PpCHIL-A” value in assay [13] (fluorescence) was “approximately twofold”. Also, in assay [15], the “reduction of binding relative to wildtype VvCHIL” value was “approximately twofold”.
In [17], “Chalcone isomerase-like protein from Vitis vinifera (VvCHIL) (natural protein)” came in with a stoichiometry N of 3.

The values are drawn from article PMC10276294, “Regulatory ligand binding in plant chalcone isomerase–like (CHIL) proteins” (The Journal of Biological Chemistry, 2023).
